Values joined by “and” are separate entries in the source; they are usually repeats but may differ in a detail not shown here. Equal values may be shown once.
Tests used:
[1] = target: T1, 5HT4 (Homo sapiens, UniProt Q13639); test: β-arrestin2 recruitment (Tango); format: cell-based; details: Fig_S10n, drug alone
T1 construct: expressed in transfected cells; host or cells: HTLA cells expressing TEV-fused β-arrestin2

[2] = system: serotonin receptor of Fig_S10h (subtype not given); test: β-arrestin2 recruitment (Tango), agonist activity, source data Fig_S10h; format: cell-based, human; details: drug alone
[3] = target: T2, 5HT1A (Homo sapiens, UniProt P08908); test: β-arrestin2 recruitment (Tango); format: cell-based; details: Fig_S10f, single replicates
T2 construct: expressed in transfected cells; host or cells: HTLA cells expressing TEV-fused β-arrestin2
T2 sequence (P08908 1-422): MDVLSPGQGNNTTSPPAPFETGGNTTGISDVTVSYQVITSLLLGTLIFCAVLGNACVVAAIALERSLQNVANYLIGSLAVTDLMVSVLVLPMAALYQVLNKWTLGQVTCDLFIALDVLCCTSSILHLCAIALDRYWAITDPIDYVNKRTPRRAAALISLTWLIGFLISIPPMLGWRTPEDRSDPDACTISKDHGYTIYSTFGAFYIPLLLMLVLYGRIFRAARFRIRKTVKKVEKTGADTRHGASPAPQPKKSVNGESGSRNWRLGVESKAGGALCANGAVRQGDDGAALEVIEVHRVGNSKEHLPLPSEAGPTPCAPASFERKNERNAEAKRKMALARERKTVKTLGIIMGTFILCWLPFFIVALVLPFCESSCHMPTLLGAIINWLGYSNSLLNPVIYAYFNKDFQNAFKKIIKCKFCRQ

[4] = target: T3, 5HT1F (Homo sapiens, UniProt P30939); test: β-arrestin2 recruitment (Tango); format: cell-based; details: for β-arrestin2 recruitment response, agonist mode (single replicate values): Fig_S10j; for Fig_S10j dose-response, drug alone (agonist mode), β-arrestin2 recruitment: single replicate values
T3 construct: expressed in transfected cells; host or cells: HTLA cells expressing TEV-fused β-arrestin2
T3 sequence (P30939 1-366): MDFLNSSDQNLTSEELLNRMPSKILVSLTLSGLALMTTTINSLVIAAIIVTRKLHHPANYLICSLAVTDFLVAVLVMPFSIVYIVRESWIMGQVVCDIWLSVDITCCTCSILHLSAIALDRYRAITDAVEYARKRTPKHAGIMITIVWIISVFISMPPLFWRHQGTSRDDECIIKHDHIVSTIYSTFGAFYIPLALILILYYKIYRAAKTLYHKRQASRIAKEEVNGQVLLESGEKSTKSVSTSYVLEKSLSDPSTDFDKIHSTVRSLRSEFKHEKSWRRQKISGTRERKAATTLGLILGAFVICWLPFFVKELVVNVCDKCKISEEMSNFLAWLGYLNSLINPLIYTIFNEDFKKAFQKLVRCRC

T1 sequence (Q13639 whole entry, the tested form may be a part): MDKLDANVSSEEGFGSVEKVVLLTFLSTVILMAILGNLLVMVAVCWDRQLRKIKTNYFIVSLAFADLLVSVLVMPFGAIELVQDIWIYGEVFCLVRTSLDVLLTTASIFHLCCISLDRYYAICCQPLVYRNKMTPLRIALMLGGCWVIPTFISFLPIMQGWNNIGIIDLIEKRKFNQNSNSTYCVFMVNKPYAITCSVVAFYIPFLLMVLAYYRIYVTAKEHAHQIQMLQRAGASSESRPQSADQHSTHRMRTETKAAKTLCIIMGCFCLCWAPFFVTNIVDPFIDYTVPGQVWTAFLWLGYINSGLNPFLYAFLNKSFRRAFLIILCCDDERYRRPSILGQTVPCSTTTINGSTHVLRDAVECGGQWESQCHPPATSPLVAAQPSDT

NCCc1c[nH]c2ccc(O)cc12 [serotonin]
β-arrestin2 recruitment response (dose-response source data, replicate values) ([1]; Log[Drug] -6.52): 4.364 and 3.213 and 1.27 and 4.689 and 5.849 and 4.639 and 0.7041 and 1.028 and 0.8286
β-arrestin2 recruitment response (dose-response source data, replicate values) ([1]; Log[Drug] -7): 0.4502 and 1.04 and 0.7749 and 1.703 and 3.757 and 0.2045 and 0.7898
β-arrestin2 recruitment response (dose-response source data, replicate values) ([1]; Log[Drug] -7.52): 0.2639 and 1.123 and 0.6731 and 1.44 and 0.8323 and -0.173 and -0.1455 and 0.1779
β-arrestin2 recruitment response (dose-response source data, replicate values) ([1]; Log[Drug] -8): 0.909 and 1.368 and 1.768 and 1.945 and 1.002 and 4.528 and -0.04204 and 0.2773 and -0.04931
β-arrestin2 recruitment response (dose-response source data, replicate values) ([1]; Log[Drug] -8.52): 1.014 and 0.4607 and 1.27 and 2.026 and 2.149 and 0.7135 and 0.536
β-arrestin2 recruitment response (dose-response source data, replicate values) ([1]; Log[Drug] -9): 4.112 and 0.5135 and 0.7781 and 0.7219 and 2.151 and -0.2021 and -0.04689 and 0.1787
β-arrestin2 recruitment response (dose-response source data, replicate values) ([1]; Log[Drug] -9.52): -0.1745 and 0.2987 and 0.5551 and 1.654 and 2.192 and 1.098 and -0.3371 and 0.1099
β-arrestin2 recruitment response (dose-response source data, replicate values) ([1]; Log[Drug] -10): 0.07451 and 0.7799 and 1.035 and 0.7688 and 1.653 and 0.865 and -0.1787 and 0.1471
β-arrestin2 recruitment response (dose-response source data, replicate values) ([1]; Log[Drug] -10.52): -0.001242 and 0.2372 and 0.7047 and -0.005208 and 0.949 and 0.8156 and -0.3363 and -0.2741
β-arrestin2 recruitment response (dose-response source data, replicate values) ([1]; Log[Drug] -11): 0.09934 and 0.2831 and 0.9059 and 0.201 and 0.5729 and -0.1083 and 0.6362 and -0.2773
β-arrestin2 recruitment response (dose-response source data, replicate values) ([1]; Log[Drug] -11.52): -0.1788 and 1.011 and 0.1838 and 2.165 and 0.3594 and 0.526 and -0.2336 and -0.308 and 0.3767
β-arrestin2 recruitment response (dose-response source data, replicate values) ([1]; Log[Drug] -12): 0.2813 and -0.1521 and 0.7458 and 0.6208 and 0.6615 and -0.1358 and -0.3662
response, single replicates of the concentration-response curve ([2]; Log[Drug] -6.52): 12.0291 and 19.5952
response, single replicates of the concentration-response curve ([2]; Log[Drug] -7): 2.6011 and -1.075 and 3.048 and 4.334 and 32.5585 and -0.4363 and 18.2842 and -0.3304 and 3.805
response, single replicates of the concentration-response curve ([2]; Log[Drug] -7.52): -5.305 and -8.997 and -2.862 and 15.7285 and -12.0664 and -2.954 and 4.129 and -0.7381 and 8.911
response, single replicates of the concentration-response curve ([2]; Log[Drug] -8): 11.8117 and 29.1299 and 15.6343 and 0.03576 and -18.7755 and 4.449 and 0.1518 and -2.004 and 0.1399
response, single replicates of the concentration-response curve ([2]; Log[Drug] -8.52): 12.7881 and -3.85 and 7.621 and -15.471 and -6.659 and -3.791 and 12.564 and 15.564 and 7.72
response, single replicates of the concentration-response curve ([2]; Log[Drug] -9): 21.6587 and -10.519 and 17.1443 and 3.469 and -2.646 and 17.2305 and 22.0208 and 9.871 and -3.368
response, single replicates of the concentration-response curve ([2]; Log[Drug] -9.52): -18.3856 and 11.0725 and -0.8301 and -0.6294 and 19.1689 and -9.835 and 1.3631 and 4.138 and -4.946
response, single replicates of the concentration-response curve ([2]; Log[Drug] -10): 3.467 and 11.9303 and -16.5277 and -15.8143 and 26.0782 and 5.9867 and -1.32 and 21.2827 and -2.198
response, single replicates of the concentration-response curve ([2]; Log[Drug] -10.52): -7.491 and 8.349 and -14.563 and -13.4182 and -6.602 and -12.1379 and 3.417 and 10.9077 and 6.354
response, single replicates of the concentration-response curve ([2]; Log[Drug] -11): 29.0865 and 1.862 and -7.017 and 5.1 and 20.1702 and -18.3463 and 23.1562 and 16.2753 and 2.497
response, single replicates of the concentration-response curve ([2]; Log[Drug] -11.52): -9.416 and 4.206 and 8.815 and -3.0613 and -4.084 and 8.812 and 2.924 and 7.927 and -1.673
response, single replicates of the concentration-response curve ([2]; Log[Drug] -12): 14.8397 and -1.032 and -13.808 and 8.962 and 3.855 and 6.222 and -0.3036 and -4.71
β-arrestin2 recruitment response, agonist mode (normalized) ([3]; Log[Drug] -9.52): 0.051 and -0.6094 and 0.4564 and 0.9983 and -0.6725 and -0.3119 and 0.3423 and -0.09315 and -0.541 and 0.6114
β-arrestin2 recruitment response, agonist mode (normalized) ([3]; Log[Drug] -10): -0.5013 and -1.706 and 4.314 and 0.8312 and -0.5054 and -0.4971 and 1.761 and 0.86 and 0.493 and 1.8886 and 0.4834
β-arrestin2 recruitment response, agonist mode (normalized) ([3]; Log[Drug] -10.52): 0.008354 and -1.487 and -0.1989 and 2.088 and -0.6683 and 3.151 and -0.06065 and -0.5318 and -0.2913
β-arrestin2 recruitment response, agonist mode (normalized) ([3]; Log[Drug] -11): -0.8312 and 0.8491 and 0.1249 and -0.3544 and 0.3342 and 1.248 and -0.5329 and 0.3 and -1.04 and 0.4834
β-arrestin2 recruitment response, agonist mode (normalized) ([3]; Log[Drug] -11.52): -0.8271 and 2.483 and -0.08669 and -0.3213 and -0.5138 and 3.162 and -0.4376 and 0.6466 and -0.1376 and 0.477 and 1.383 and 1.636
β-arrestin2 recruitment response, agonist mode (normalized) ([3]; Log[Drug] -12): -0.1546 and 0.0408 and 0.03825 and -0.07649 and -0.33 and -0.5096 and -0.8188 and 0.4787 and -0.4787 and 6.658 and -0.3041 and 1.905
β-arrestin2 recruitment response, agonist mode (single replicate values) ([4]; Log[Drug] -8): -3.452 and 0.8129 and -0.7741 and 0.7081 and -0.3166
β-arrestin2 recruitment response, agonist mode (single replicate values) ([4]; Log[Drug] -8.52): 1.467 and -0.5936 and -0.6771 and -0.2347 and -1.695 and -2.24 and -2.059 and -1.682 and -0.1562 and 2.169 and 0.8707 and -1.81
β-arrestin2 recruitment response, agonist mode (single replicate values) ([4]; Log[Drug] -9): -0.04426 and -0.9855 and -1.843 and -0.9137 and -1.161 and -1.413 and 1.14 and -2.447 and -1.948 and 1.946 and -0.5 and -0.1377
β-arrestin2 recruitment response, agonist mode (single replicate values) ([4]; Log[Drug] -9.52): -2.101 and 2.6714 and -0.3744 and -0.1804 and 3.084 and -0.3427 and -1.809 and -0.4001 and 2.85 and -0.1339 and -0.298
β-arrestin2 recruitment response, agonist mode (single replicate values) ([4]; Log[Drug] -10): -0.8375 and -0.7488 and -1.773 and 1.74 and -2.24 and -1.559 and -0.2741 and -1.133 and -0.7969 and 0.416 and -0.2133 and -1.1997
β-arrestin2 recruitment response, agonist mode (single replicate values) ([4]; Log[Drug] -10.52): -2.914 and -1.511 and -1.366 and -1.154 and -2.628 and -0.5924 and -0.6184 and 5.324 and 0.8942 and 0.1831 and -0.2458 and -1.109
β-arrestin2 recruitment response, agonist mode (single replicate values) ([4]; Log[Drug] -11): 4.606 and -2.13 and -1.057 and 0.00776 and -2.261 and -1.2903 and -0.3379 and -1.603 and 0.8607 and 0.8858 and 0.4773 and -0.3843
β-arrestin2 recruitment response, agonist mode (single replicate values) ([4]; Log[Drug] -11.52): -1.978 and -2.064 and -1.769 and 3.255 and 2.53 and 1.832 and 0.0271 and 2.781 and -0.9914 and 1.71 and -0.0711 and -0.3911
β-arrestin2 recruitment response, agonist mode (single replicate values) ([4]; Log[Drug] -12): -1.651 and 2.46 and -1.762 and -0.6984 and -0.5958 and -0.3302 and -0.006376 and -1.878 and -2.439 and 3.47 and -0.3101 and 0.7769
Fig_S10j dose-response, drug alone (agonist mode), β-arrestin2 recruitment ([4]; Log[Drug] -5): 60.4606 and 65.0002 and 90.3142 and 57.9444 and 78.7631 and 57.8244 and 78.5234 and 70.8275 and 63.3071
Fig_S10j dose-response, drug alone (agonist mode), β-arrestin2 recruitment ([4]; Log[Drug] -5.52): 68.8966 and 66.6667 and 38.5966 and 34.7166 and 67.3748 and 41.3918 and 50.0717 and 43.7042 and 56.4145 and 60.2307 and 56.8071
Fig_S10j dose-response, drug alone (agonist mode), β-arrestin2 recruitment ([4]; Log[Drug] -6): 65.3117 and 41.5532 and 32.9512 and 18.8414 and 35.6041 and 33.2006 and 38.6085 and 22.7128 and 20.6455 and 38.0393 and 43.4213 and 39.1952
Fig_S10j dose-response, drug alone (agonist mode), β-arrestin2 recruitment ([4]; Log[Drug] -6.52): 37.7864 and 17.7453 and 10.6352 and 8.195 and 10.8807 and 16.9203 and 24.2636 and 7.26 and 7.434 and 25.9629 and 24.0976 and 19.2564
Fig_S10j dose-response, drug alone (agonist mode), β-arrestin2 recruitment ([4]; Log[Drug] -7): 0.08171 and 0.8827 and 2.8945 and 3.486 and 0.8409 and 1.495 and 3.165 and 2.979 and 1.237 and 11.4622 and 7.762 and 4.191
Fig_S10j dose-response, drug alone (agonist mode), β-arrestin2 recruitment ([4]; Log[Drug] -7.52): -1.661 and -1.926 and 1.238 and 3.081 and -2.387 and 1.699 and 4.498 and -1.4313 and 5.445 and 5.244 and 1.302 and 0.4992
